In patent US9345711B2, “Methods for acute and long-term treatment of drug addiction” (DemeRx, Inc., priority 2014, dated 2016):
Entries after “also recorded” stand apart in the source; their conditions may differ.

Experiments:
[1] = Pharmacokinetics of noribogaine in healthy volunteers after single oral dose (plasma, LCMSMS)
[2] = Pupillometry (pupillary miosis) in healthy volunteers; type: in vivo, human
Protocol: (§1) Pulse oximetry and capnography data were collected continuously using a GE Carescape B650 monitoring system from 2 hours prior to dosing and until six hours after dosing, and thereafter at 12, 24, 48 and 72 hours post-dosing. […] Pupillary miosis was assessed by pupillometry.

[3] = Cold pressor test (analgesic effect) in healthy volunteers; type: in vivo, human
Protocol: Analgesic effect was assessed based on duration of hand immersion in ice water and on visual analog scale (VAS) pain scores upon hand removal from the water bath.
(§2) Safety and tolerability of noribogaine were tested in the group of volunteers from Example 1. […] Safety evaluations included clinical monitoring, recording of adverse events (AEs), safety laboratory tests, vital signs, ECG telemetry from −2 h to 6 h after dosing, and 12-lead electrocardiograms (ECGs) up to 216 hours post-dosing.

[4] = Safety and tolerability of noribogaine in healthy volunteers (adverse events, vital signs, ECG); type: in vivo, human
Protocol: as §1, §2

[5] = Efficacy of noribogaine in opioid-dependent participants: time to resumption of opioid substitution treatment; type: in vivo, human; settings: for average time to resumption of opioids: single oral dose
Protocol: (§3) The efficacy of noribogaine in humans was evaluated in opioid-dependent participants in a randomized, placebo-controlled, double-blind trial. […] See U.S. Provisional Application Ser. No. 61/852,485, filed Mar. 15, 2013, which is incorporated herein by reference in its entirety.
(§4) In the first cohort, six patients were orally administered a single dose of 60 mg noribogaine, and three patients received placebo. In the second cohort, five patients were orally administered a single dose of 120 mg noribogaine, and three patients received placebo.
FIG. 3 indicates the serum noribogaine concentration over time. Serum concentrations for 120 mg dose (black squares) are estimated based on data from the 60 mg dose (gray diamonds).

[6] = Safety and QT interval in opioid-dependent participants; type: in vivo, human; settings: for Mean prolongation of the QT interval: opioid-dependent patients
Protocol: as §3, §4

[7] = plasma glucuronide after single oral 30 mg noribogaine, healthy volunteers, mean (SD), n = 6
[8] = plasma glucuronide after single oral 60 mg noribogaine, healthy volunteers, mean (SD), n = 6
[9] = after adjusting for baseline differences, p>0.9
[10] = 3 mg dose group, healthy volunteers
[11] = opioid-dependent participants, single oral 60 mg or 120 mg
[12] = across dose groups (3-60 mg), healthy volunteers

SMILES: CC[C@H]1C[C@@H]2C[C@H]3c4[nH]c5ccc(OC6OC(C(=O)O)C(O)C(O)C6O)cc5c4CCN(C2)[C@@H]13 (stereo partly drawn) [Noribogaine glucuronide]
- AUC0-216 of noribogaine glucuronide [1, 7]: 25.7 (9.1) ng · hr/ml
- AUC0-∞ of noribogaine glucuronide [1, 7]: 25.8 (9.3) ng · hr/ml
- Cmax of noribogaine glucuronide [1, 7]: 1.8 (0.6) ng/ml
- Tmax of noribogaine glucuronide [1, 7]: 3.0 (0.6) hr
- t1/2 of noribogaine glucuronide [1, 7]: 20.6 (4.9) hr
- AUC0-216 of noribogaine glucuronide [1, 8]: 65.0 (21.5) ng · hr/ml
- AUC0-∞ of noribogaine glucuronide [1, 8]: 67.1 (21.9) ng · hr/ml
- Cmax of noribogaine glucuronide [1, 8]: 4.1 (1.2) ng/ml
- Tmax of noribogaine glucuronide [1, 8]: 3.8 (1.2) hr
- t1/2 of noribogaine glucuronide [1, 8]: 23.1 (3.0) hr
- time of peak glucuronide concentrations after noribogaine dosing ([1]; plasma, 30 mg and 60 mg noribogaine dose groups): 3 to 4 h

SMILES: CC[C@H]1CC2C[C@H]3c4[nH]c5ccc(O)cc5c4CCN(C2)C13 [Noribogaine]
- pupil diameter, each dose group vs placebo (ANOVA) [2, 9]: no statistically significant differences
- pupillary constriction ([2]; healthy volunteers, 3-60 mg single oral dose): no evidence of pupillary constriction
- VAS pain scores, each dose group vs placebo (ANOVA) ([3]; after adjusting for baseline differences, p=0.17): no statistically significant differences
- duration of hand immersion, each dose group vs placebo (ANOVA) [3, 9]: no statistically significant differences
- analgesic effect in the cold pressor test ([3]; healthy volunteers, 3-60 mg single oral dose, 1° C. water): no analgesic effect
- adverse events, Mild [4, 10]: Dizziness; also recorded: Epistaxis; also recorded: Headache; also recorded: Back pain
- adverse events, Moderate [4, 10]: Headache
- number of adverse events reported ([4]; 3 mg dose group, two subjects): five adverse events
- adverse events, Mild ([4]; 10 mg dose group, healthy volunteers): Headache
- number of adverse events reported ([4]; 10 mg dose group, single subject): one adverse event
- adverse events, Mild ([4]; 30 mg dose group, healthy volunteers): Headache
- number of adverse events reported ([4]; 30 mg dose group, single subject): one adverse event
- intensity of adverse events ([4]; all dose groups, all resolved prior to study completion): mild-moderate intensity
- changes in oximetry, capnography or respiratory rate ([4]; healthy volunteers, 3-60 mg): no changes in oximetry or capnography, or changes in respiratory rate
- changes in vital signs or safety laboratory tests ([4]; healthy volunteers, 3-60 mg): no changes in vital signs or safety laboratory tests of note
- average time to resumption of opioids ([5]; first cohort, blinded: 60 mg noribogaine (6 patients) or placebo (3 patients)): approximately 8.7 hours
- time to resumption of opioids longer than reported for untreated patients in a similar study ([5]; first cohort, blinded: 60 mg noribogaine or placebo): ~2 h
- average time to resumption of OST ([5]; five presumed noribogaine-treated patients of second cohort (imputed, 120 mg), placebo construed from no QT prolongation): approximately 26.8 hours
- impact on withdrawal symptoms in addicted patients ([5]; lower dosing of noribogaine, human clinical studies (summary statement)): minimal impact on withdrawal symptoms
- average time to resumption of opioids ([5]; second cohort, blinded: 120 mg noribogaine (5 patients) or placebo (3 patients)): approximately 23 hours
- Mean prolongation of the QT interval ([6]; first cohort (60 mg noribogaine or placebo)): less than 10 ms
- adverse effects [6, 11]: No adverse effects
- hallucinatory effects [6, 11]: no hallucinatory effects
- Mean prolongation of the QT interval ([6]; second cohort (120 mg noribogaine or placebo)): less than 40 ms
- prolongation of the treated patient's QT interval ([6]; summary statement, increases in opioid addicted patients compared to healthy individuals): dose dependent prolongation
- dose-proportionality of Cmax and AUC ([1]; 3-60 mg single oral doses, linear regression): increased linearly with dose
- Mean half-life estimates [1, 12]: 28 to 50 h
- Volume of distribution [1, 12]: 1417 to 3086 L
- CL/F ([1]; healthy male volunteers, single oral 3 mg noribogaine, mean (SD), n = 6): 41.4 (7.0) L/h
- CL/F ([1]; healthy male volunteers, single oral 10 mg noribogaine, mean (SD), n = 6): 42.3 (12.0) L/h
- CL/F ([1]; healthy male volunteers, single oral 30 mg noribogaine, mean (SD), n = 6): 46.9 (16.4) L/h
- Tmax ([1]; healthy male volunteers, single oral 30 mg noribogaine, plasma, mean (SD), n = 6): 1.8 (0.6) hr
- CL/F ([1]; healthy male volunteers, single oral 60 mg noribogaine, mean (SD), n = 6): 34.0 (11.4) L/h
- time of peak concentrations after oral dosing ([1]; healthy volunteers, 3-60 mg dose groups): 2 to 3 h
